Measurements: patent US7951829B2, “Benzimidazole modulators of VR1” (Janssen Pharmaceutica NV, priority 2006, dated 2011)

Molecular target: T1, hVR1 (Homo sapiens, UniProt Q8NER1)
T1 construct: expressed in transfected cells; host or cells: HEK293
Test: Human VR1 (hVR1) Functional Assay (FLIPR intracellular calcium, capsaicin challenge)
Type: cell-based
Settings: capsaicin 0.030 μM, HEK293 cells expressing hVR1; for inhibition at 1 µM: test concentration 1 μM

T1 sequence (Q8NER1 whole entry): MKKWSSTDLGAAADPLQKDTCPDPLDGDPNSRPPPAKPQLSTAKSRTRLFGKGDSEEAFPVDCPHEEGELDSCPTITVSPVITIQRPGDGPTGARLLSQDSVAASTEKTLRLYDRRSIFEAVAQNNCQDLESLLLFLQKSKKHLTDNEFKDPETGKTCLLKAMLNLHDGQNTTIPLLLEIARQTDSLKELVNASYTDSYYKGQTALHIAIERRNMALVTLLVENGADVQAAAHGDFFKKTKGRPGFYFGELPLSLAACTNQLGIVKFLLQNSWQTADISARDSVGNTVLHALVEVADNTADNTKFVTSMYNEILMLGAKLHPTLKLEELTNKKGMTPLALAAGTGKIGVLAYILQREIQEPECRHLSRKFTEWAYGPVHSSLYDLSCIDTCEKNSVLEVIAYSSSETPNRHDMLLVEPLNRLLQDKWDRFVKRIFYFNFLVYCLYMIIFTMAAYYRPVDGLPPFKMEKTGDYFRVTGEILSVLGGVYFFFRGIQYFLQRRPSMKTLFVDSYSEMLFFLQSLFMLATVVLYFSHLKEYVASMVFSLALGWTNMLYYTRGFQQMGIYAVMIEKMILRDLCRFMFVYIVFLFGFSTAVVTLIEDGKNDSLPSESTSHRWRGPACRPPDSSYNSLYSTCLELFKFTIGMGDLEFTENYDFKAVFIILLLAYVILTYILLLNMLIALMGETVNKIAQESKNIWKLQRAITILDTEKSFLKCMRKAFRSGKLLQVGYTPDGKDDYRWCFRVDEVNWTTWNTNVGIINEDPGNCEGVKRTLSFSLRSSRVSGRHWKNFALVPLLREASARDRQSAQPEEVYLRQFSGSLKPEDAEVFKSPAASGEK

SMILES	IC50 [nM]	inhibition at 1 µM [%]
NS(=O)(=O)c1cc(C(F)(F)F)ccc1-c1ccc2[nH]c(CCc3ccc(C(F)(F)F)cc3)nc2c1 [Cpd 447, 5-trifluoromethyl-2-{2-[2-(4-trifluoromethyl-phenyl)-ethyl]-1H-benzimidazol-5-yl}-benzenesulfonamide]	44	98
COc1ccc(C2CC2c2nc3cc(-c4ccccc4C(C)(C)O)ccc3[nH]2)cc1 (stereo not drawn) [Cpd 494, 2-(2-{2-[2-(4-methoxy-phenyl)-cyclopropyl]-1H-benzimidazol-5-yl}-phenyl)-propan-2-ol]	52	93
NS(=O)(=O)c1ccccc1-c1ccc2[nH]c(/C=C/c3ccc(Cl)c(Cl)c3)nc2c1 [Cpd 427, (E)-2-{2-[2-(3,4-dichloro-phenyl)-vinyl]-1H-benzimidazol-5-yl}-benzenesulfonamide]	13	98
CC(C)(C)NS(=O)(=O)c1ccccc1-c1ccc2[nH]c(/C=C/c3ccc(C(F)(F)F)cc3)nc2c1 [Cpd 309, (E)-N-tert-butyl-2-{2-[2-(4-trifluoromethyl-phenyl)-vinyl]-1H-benzimidazol-5-yl}-benzenesulfonamide]	–	73
CNS(=O)(=O)c1ccccc1-c1ccc2[nH]c(/C=C/c3cccc(C(F)(F)F)c3F)nc2c1 [Cpd 332, (E)-2-{2-[2-(2-fluoro-3-trifluoromethyl-phenyl)-vinyl]-1H-benzimidazol-5-yl}-N-methyl-benzenesulfonamide]	49	98
CC(C)(C)c1ccc(/C=C/c2nc3cc(-c4ccccc4NS(C)(=O)=O)c(C(F)(F)F)cc3[nH]2)cc1 [Cpd 55, (E)-N-(2-{2-[2-(4-tert-butyl-phenyl)-vinyl]-6-trifluoromethyl-1H-benzimidazol-5-yl}-phenyl)-methanesulfonamide]	–	14
NS(=O)(=O)c1ccccc1-c1ccc2[nH]c(/C=C/c3cccc(Br)c3)nc2c1 [Cpd 376, (E)-2-{2-[2-(3-bromo-phenyl)-vinyl]-1H-benzimidazol-5-yl}-benzenesulfonamide]	28	100
NS(=O)(=O)c1ccccc1-c1ccc2[nH]c(/C=C/c3cccc(C(F)(F)F)c3F)nc2c1 [Cpd 368, (E)-2-{2-[2-(2-fluoro-3-trifluoromethyl-phenyl)-vinyl]-1H-benzimidazol-5-yl}-benzenesulfonamide]	15	99
CNS(=O)(=O)c1ccccc1-c1ccc2[nH]c(/C=C/c3cccc(Cl)c3F)nc2c1 [Cpd 335, (E)-2-{2-[2-(3-chloro-2-fluoro-phenyl)-vinyl]-1H-benzimidazol-5-yl}-N-methyl-benzenesulfonamide]	47	100
CS(=O)(=O)Nc1ccccc1-c1ccc2[nH]c(C3CC3c3ccc(C(F)(F)F)cc3)nc2c1 (stereo not drawn) [Cpd 467, N-(2-{2-[2-(4-trifluoromethyl-phenyl)-cyclopropyl]-1H-benzimidazol-5-yl}-phenyl)-methanesulfonamide]	182	86
CC(=O)Nc1ccccc1-c1ccc2[nH]c(CCc3ccc(C(F)(F)F)cc3)nc2c1 [Cpd 457, N-(2-{2-[2-(4-trifluoromethyl-phenyl)-ethyl]-1H-benzimidazol-5-yl}-phenyl)-acetamide]	–	22
CC(C)(O)c1ccccc1-c1ccc2[nH]c(/C=C/c3ccccc3C(F)(F)F)nc2c1 [Cpd 482, (E)-2-(2-{2-[2-(2-trifluoromethyl-phenyl)-vinyl]-1H-benzimidazol-5-yl}-phenyl)-propan-2-ol]	13	100
NS(=O)(=O)c1ccccc1-c1ccc2[nH]c(CCc3ccccc3F)nc2c1 [Cpd 419, 2-{2-[2-(2-fluoro-phenyl)-ethyl]-1H-benzimidazol-5-yl}-benzenesulfonamide]	32	93
CNS(=O)(=O)c1ccccc1-c1ccc2[nH]c(/C=C/c3ccc(C)cc3)nc2c1 [Cpd 314, (E)-N-methyl-2-[2-(2-p-tolyl-vinyl)-1H-benzimidazol-5-yl]-benzenesulfonamide]	18	100
CNS(=O)(=O)c1ccccc1-c1ccc2[nH]c(/C=C/c3ccc(Cl)cc3S(C)(=O)=O)nc2c1 [Cpd 340, (E)-2-{2-[2-(4-chloro-2-methanesulfonyl-phenyl)-vinyl]-1H-benzimidazol-5-yl}-N-methyl-benzenesulfonamide]	62	98

Continued, values first:

IC50 [nM]	inhibition at 1 µM [%]	SMILES
21	97	NS(=O)(=O)c1ccccc1-c1ccc2[nH]c(CCc3cc(F)c(F)cc3F)nc2c1 [Cpd 385, 2-{2-[2-(2,4,5-trifluoro-phenyl)-ethyl]-1H-benzimidazol-5-yl}-benzenesulfonamide]
11	99	NS(=O)(=O)c1ccccc1-c1ccc2[nH]c(/C=C/c3ccc(C(F)(F)F)cc3F)nc2c1 [Cpd 424, (E)-2-{2-[2-(2-fluoro-4-trifluoromethyl-phenyl)-vinyl]-1H-benzimidazol-5-yl}-benzenesulfonamide]
210	100	CC(C)(C)c1ccc(/C=C/c2nc3cc(-c4ccccc4N)ccc3[nH]2)cc1 [Cpd 11, (E)-2-{2-[2-(4-tert-butyl-phenyl)-vinyl]-1H-benzimidazol-5-yl}-phenylamine]
22	95	NS(=O)(=O)c1ccccc1-c1ccc2[nH]c([C@H]3C[C@@H]3c3ccc(C(F)(F)F)cc3)nc2c1 [Cpd 504, 2-{2-[(1S,2S)-2-(4-trifluoromethyl-phenyl)-cyclopropyl]-1H-benzimidazol-5-yl}-benzenesulfonamide]
16	100	NS(=O)(=O)c1ccccc1-c1ccc2[nH]c(C#Cc3cccc(C(F)(F)F)c3)nc2c1 [Cpd 295, 2-[2-(3-trifluoromethyl-phenylethynyl)-1H-benzimidazol-5-yl]-benzenesulfonamide]
13	101	CNS(=O)(=O)c1ccccc1-c1ccc2[nH]c(/C=C/c3ccc(OC(F)(F)F)cc3)nc2c1 [Cpd 345, (E)-N-methyl-2-{2-[2-(4-trifluoromethoxy-phenyl)-vinyl]-1H-benzimidazol-5-yl}-benzenesulfonamide]
–	2	CCOc1cccc(/C=C/c2nc3cc(-c4ccccc4S(N)(=O)=O)ccc3[nH]2)c1 [Cpd 425, (E)-2-{2-[2-(3-ethoxy-phenyl)-vinyl]-1H-benzimidazol-5-yl}-benzenesulfonamide]
8	100	NS(=O)(=O)c1ccccc1-c1ccc2[nH]c(/C=C/c3ccc(F)cc3F)nc2c1 [Cpd 357, (E)-2-{2-[2-(2,4-difluoro-phenyl)-vinyl]-1H-benzimidazol-5-yl}-benzenesulfonamide]
> 500	–	CSc1ccccc1-c1ccc2[nH]c(/C=C/c3ccc(C(F)(F)F)cc3)nc2c1 [Cpd 480, (E)-5-(2-methylsulfanyl-phenyl)-2-[2-(4-trifluoromethyl-phenyl)-vinyl]-1H-benzimidazole]
6	100	NS(=O)(=O)c1ccccc1-c1ccc2[nH]c(CCc3ccc(C(F)(F)F)cc3)nc2c1 [Cpd 130, 2-{2-[2-(4-trifluoromethyl-phenyl)-ethyl]-1H-benzimidazol-5-yl}-benzenesulfonamide]
5	99	CC(C)(O)c1ccccc1-c1ccc2[nH]c(C#Cc3ccc(C(F)(F)F)cc3)nc2c1 [Cpd 492, 2-{2-[2-(4-trifluoromethyl-phenylethynyl)-1H-benzimidazol-5-yl]-phenyl}-propan-2-ol]
–	12	CC(C)(C)c1ccc(/C=C/c2nc3cc(-c4cccc(C(N)=O)c4)ccc3[nH]2)cc1 [Cpd 6, (E)-3-{2-[2-(4-tert-butyl-phenyl)-vinyl]-1H-benzimidazol-5-yl}-benzamide]
19	100	NC(=O)c1ccccc1-c1ccc2[nH]c(C3CC3c3ccc(C(F)(F)F)cc3)nc2c1 (stereo not drawn) [Cpd 498, 2-{2-[2-(4-trifluoromethyl-phenyl)-cyclopropyl]-1H-benzimidazol-5-yl}-benzamide]
–	18	CC(=O)Nc1ccccc1-c1ccc2[nH]c(/C=C/c3ccc(SC(F)(F)F)cc3)nc2c1 [Cpd 37, (E)-N-(2-{2-[2-(4-trifluoromethylsulfanyl-phenyl)-vinyl]-1H-benzimidazol-5-yl}-phenyl)-acetamide]
3	97	CN(C)S(=O)(=O)c1ccccc1-c1ccc2[nH]c(/C=C/c3ccc(C(F)(F)F)cc3)nc2c1 [Cpd 398, (E)-N,N-dimethyl-2-{2-[2-(4-trifluoromethyl-phenyl)-vinyl]-1H-benzimidazol-5-yl}-benzenesulfonamide]
33	98	CNS(=O)(=O)c1ccccc1-c1ccc2[nH]c(/C=C/c3cc(F)c(F)cc3F)nc2c1 [Cpd 324, (E)-N-methyl-2-{2-[2-(2,4,5-trifluoro-phenyl)-vinyl]-1H-benzimidazol-5-yl}-benzenesulfonamide]
363	75	Nc1ccccc1-c1ccc2[nH]c(/C=C/c3ccc(C(F)(F)F)cc3)nc2c1 [Cpd 465, (E)-2-{2-[2-(4-trifluoromethyl-phenyl)-vinyl]-1H-benzimidazol-5-yl}-phenylamine]
8	95	NS(=O)(=O)c1ccccc1-c1ccc2[nH]c(CCc3cccc(OC(F)(F)F)c3)nc2c1 [Cpd 391, 2-{2-[2-(3-trifluoromethoxy-phenyl)-ethyl]-1H-benzimidazol-5-yl}-benzenesulfonamide]
50	100	CNS(=O)(=O)c1ccccc1-c1ccc2[nH]c(/C=C/c3ccc(N(C)C)cc3)nc2c1 [Cpd 318, (E)-2-{2-[2-(4-dimethylamino-phenyl)-vinyl]-1H-benzimidazol-5-yl}-N-methyl-benzenesulfonamide]
140	98	CCOc1ccc(/C=C/c2nc3cc(-c4ccccc4NS(C)(=O)=O)ccc3[nH]2)cc1 [Cpd 414, (E)-N-(2-{2-[2-(4-ethoxy-phenyl)-vinyl]-1H-benzimidazol-5-yl}-phenyl)-methanesulfonamide]
